# Results published in paper PMC3519477, “Structures of the Human Poly (ADP-Ribose) Glycohydrolase Catalytic Domain Confirm Catalytic Mechanism and Explain Inhibition by ADP-HPD Derivatives” (PLoS ONE, 2012).
# Several values for one entry are separate records, joined by “and”; a condition that tells them apart may be missing. Equal values may be shown once. Read-outs that look alike come from different tables or passages of the source.
# What was measured:
# [1] = target: wild-type bPARG; design: method as in PMID 15658938; conditions: SPR with immobilized 8-AH-ADP-HPD; cited from earlier work
# [2] = target: bPARG Glu728Asn mutant; conditions: cited from earlier work
# [3] = system: bPARG Glu708Asn mutant; conditions: ref supplemental 2 (Patel et al., 2005); cited from earlier work
# [4] = system: bPARG Asp738Asn mutant; conditions: ref supplemental 2 (Patel et al., 2005); cited from earlier work
# [5] = system: bPARG Glu756Asn mutant; design: method as in supplemental 2 (Patel et al., 2005); conditions: ref supplemental 2 (Patel et al., 2005); cited from earlier work
# [6] = system: bPARG Glu757Asn mutant; design: method as in supplemental 2 (Patel et al., 2005); conditions: ref supplemental 2 (Patel et al., 2005); cited from earlier work
# [7] = system: bPARG Tyr796Trp mutant; design: method as in supplemental 6 (Koh et al., 2003); conditions: ref supplemental 6 (Koh et al., 2003); cited from earlier work
# [8] = target: T1, hPARG (full-length recombinant hPARG(1–976)-6His) (Homo sapiens, UniProt Q86W56); assay: PARG activity HTRF assay (PAR-PARP1 hydrolysis); assay type: biochemical; conditions: hPARG
# T1 construct: direct expression of hPARG(1–976) with a C-terminal hexahistidine tag; made in house; host or cells: E. coli BL21 (DE3) GOLD
# T1 sequence (Q86W56 whole entry): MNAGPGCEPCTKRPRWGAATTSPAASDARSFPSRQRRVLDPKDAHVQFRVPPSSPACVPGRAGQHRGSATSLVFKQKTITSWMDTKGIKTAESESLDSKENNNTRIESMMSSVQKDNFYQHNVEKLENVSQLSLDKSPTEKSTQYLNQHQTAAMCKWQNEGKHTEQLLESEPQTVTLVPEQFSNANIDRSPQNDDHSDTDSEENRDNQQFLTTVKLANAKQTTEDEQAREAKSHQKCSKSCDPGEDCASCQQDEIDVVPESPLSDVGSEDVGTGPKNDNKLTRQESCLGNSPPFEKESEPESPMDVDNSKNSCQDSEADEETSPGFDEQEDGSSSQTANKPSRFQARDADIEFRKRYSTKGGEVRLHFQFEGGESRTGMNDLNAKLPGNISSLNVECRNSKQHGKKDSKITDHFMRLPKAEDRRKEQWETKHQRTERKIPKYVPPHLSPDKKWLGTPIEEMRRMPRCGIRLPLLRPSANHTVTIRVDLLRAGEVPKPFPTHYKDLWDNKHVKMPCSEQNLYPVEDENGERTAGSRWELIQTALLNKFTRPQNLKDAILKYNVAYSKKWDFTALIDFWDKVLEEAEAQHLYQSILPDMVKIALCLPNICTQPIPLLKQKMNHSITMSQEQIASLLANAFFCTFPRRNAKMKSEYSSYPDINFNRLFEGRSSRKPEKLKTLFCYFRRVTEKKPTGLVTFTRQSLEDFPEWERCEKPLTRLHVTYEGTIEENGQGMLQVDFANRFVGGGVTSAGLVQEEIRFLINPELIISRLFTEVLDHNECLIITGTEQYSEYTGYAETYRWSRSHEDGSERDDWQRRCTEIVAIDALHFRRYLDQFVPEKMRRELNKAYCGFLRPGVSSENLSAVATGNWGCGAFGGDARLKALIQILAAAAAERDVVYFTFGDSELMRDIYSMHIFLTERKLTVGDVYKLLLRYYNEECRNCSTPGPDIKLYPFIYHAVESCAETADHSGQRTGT
# Protocol: (§1) PARG activity was assessed using an HTRF assay which will be described in detail elsewhere (Bennett et al, manuscript in preparation). […] Following this incubation, biotinylated NAD^+ at a molar ratio to PARylated PARP1 of 0.7∶1 was added and incubation continued for 5 minutes. The reaction was terminated by addition of a PARP1-specific inhibitor to a final concentration of 4.7 µM. The solution was dialysed overnight to remove excess biotinylated NAD^+ and compound, and stored at −80°C. PARG activity was measured in a 384-well format HTRF assay using the biotin-labelled PARylated PARP1 as a substrate. Residual biotinylated PARylated PARP1 was detected by addition of a detection mix containing anti-6His–XL antibody (Cisbio) and streptavidin europium cryptate (Cisbio), and then monitoring the ratio of emission at 665 nm to 612 nm upon excitation at 340 nm.
# Inhibition by ADP-HPD was measured using serial dilutions over the range 100 µM to 100 pM compound from a 1 mM stock in water. Assays contained 30 pM purified recombinant PARG and 9.67 nM PAR-PARP1 in a final volume of 9 µL assay buffer (50 mM MOPS pH 7.4, 0.1 mg/mL BSA, 3 mM EDTA, 0.4 mM EGTA, 1 mM DTT, 0.01% v/v Tween20, 50 mM KCl). Reactions were allowed to proceed for 8 minutes prior to the addition of 3 µL detection reagents (50 mM MOPS pH 7.4, 0.1 mg/mL BSA, 0.1 M Potassium Fluoride, 14 nM anti-6HIS-XL antibody, 0.75 nM Streptavidin Europium Cryptate). IC50s were calculated using a time-point of 1.5 hours from the addition of detection reagents.
# Here, 17.5 nL of ADP-HPD ([…]) or OA-ADP-HPD (21.43 mM in DMSO) were dispensed by an ECHO555 (Labcyte Inc.) into Greiner white 1536-well plates over the specified range: ADP-HPD (100 µM to 100 pM) and OA-ADP-HPD (500 µM to 30 nM).
# ADP-HPD and OA-ADP-HPD inhibition data were visualised in Prism (GraphPad), and IC50s derived from a non-linear regression analysis of the values from three separate experiments (run in triplicate) fit to a sigmoidal dose-response curve.
# [9] = target: T2, hPARG26 (hPARG(448–976 [K616A, Q617A, K618A, E688A, K689A & K690A])) (Homo sapiens, UniProt Q86W56, E688A/K616A/K618A/K689A/K690A/Q617A); assay: PARG activity HTRF assay (PAR-PARP1 hydrolysis); assay type: biochemical; conditions: 9 µL HTRF
# T2 construct: a codon optimized gene encoding human PARG(448–976 [K616A, Q617A, K618A, E688A, K689A, K690A]); 6His (TEV-cleavable) (N, cleaved yes); made in house; host or cells: E. coli BL21 (DE3) GOLD (shake flasks, as for hPARG4)
# T2 sequence (Q86W56 448-976 K616A/Q617A/K618A/E688A/K689A/K690A): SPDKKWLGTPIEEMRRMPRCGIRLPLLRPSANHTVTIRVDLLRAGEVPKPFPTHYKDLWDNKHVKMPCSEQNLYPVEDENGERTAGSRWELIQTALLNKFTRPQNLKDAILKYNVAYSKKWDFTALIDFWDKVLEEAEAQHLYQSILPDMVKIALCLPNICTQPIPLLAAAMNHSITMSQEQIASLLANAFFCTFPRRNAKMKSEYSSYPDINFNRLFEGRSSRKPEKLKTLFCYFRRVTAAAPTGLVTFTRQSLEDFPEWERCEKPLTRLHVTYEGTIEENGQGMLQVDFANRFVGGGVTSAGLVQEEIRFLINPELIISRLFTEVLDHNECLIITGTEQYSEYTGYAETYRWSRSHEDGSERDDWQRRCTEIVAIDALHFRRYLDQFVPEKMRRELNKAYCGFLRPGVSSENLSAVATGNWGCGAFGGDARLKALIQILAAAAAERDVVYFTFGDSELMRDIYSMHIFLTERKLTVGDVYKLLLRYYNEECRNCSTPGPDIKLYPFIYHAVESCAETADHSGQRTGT
# Protocol: as §1
# (§2) Inhibition by ADP-HPD was measured using serial dilutions over the range 100 µM to 100 pM compound from a 1 mM stock in water. Assays contained 30 pM purified recombinant PARG and 9.67 nM PAR-PARP1 in a final volume of 9 µL assay buffer (50 mM MOPS pH 7.4, 0.1 mg/mL BSA, 3 mM EDTA, 0.4 mM EGTA, 1 mM DTT, 0.01% v/v Tween20, 50 mM KCl). […] IC50s were calculated using a time-point of 1.5 hours from the addition of detection reagents. […]
# [10] = target: T3, hPARG4 (hPARG(448–976)) (Homo sapiens, UniProt Q86W56); assay: PARG activity HTRF assay (PAR-PARP1 hydrolysis); assay type: biochemical; conditions: 9 µL HTRF
# T3 construct: a codon optimized gene encoding human PARG(448–976) was synthesized by GeneArt; 6His (TEV-cleavable) (N, cleaved yes); made in house; host or cells: E. coli BL21 (DE3) GOLD
# T3 sequence (Q86W56 448-976): as the sequence (Q86W56 448-976 K616A/Q617A/K618A/E688A/K689A/K690A) above, with A169K, A170Q, A171K, A241E, A242K, A243K counted along it
# Protocol: as §1, §2
# [11] = target: T4, hPARG (full-length) (Homo sapiens, UniProt Q86W56); assay: SPR binding to immobilised PARG, steady state fits; conditions: 25°C, steady state fit
# T4 construct: direct expression of hPARG(1–976) with a C-terminal hexahistidine tag; made in house; host or cells: E. coli BL21 (DE3) GOLD
# T4 sequence (Q86W56 whole entry): as the sequence (Q86W56 whole entry) above
# Protocol: (§3) Biosensor (SPR) analyses were conducted using a BIAcore 3000 or BIAcore S51 instrument. Research grade CM5 chips and coupling reagents (N-ethyl-N′-dimethylaminopropylcarbodiimide, EDC; N-hydroxysuccinimide, NHS; and 1 M ethanolamine HCl, pH 8.5) were purchased from BIAcore (GE Healthcare, Northampton, MA).
# (§4) A CM5 chip was docked into the instrument, primed 5 times with filtered and degassed running buffer containing 50 mM HEPES pH 7, followed by preconditioning at 100 µL/min using two consecutive aliquots of 50 µL each of 10 mM HCl, 50 mM NaOH, 0.1% (w/v) SDS, 0.085% (v/v) H3PO4. PARG surfaces were prepared by standard amine coupling via exposed amines on PARG. Immobilisations were conducted at 25°C in 50 mM HEPES at a flow rate of 5 µL/min. Flow cells were activated for 7 min by injecting a 35 µL mixture of 50 mM NHS: 200 mM EDC. Subsequently, 35 µL of 100 µg/mL PARG was injected for 7 min, followed by a 35 µL injection of ethanolamine. Typical immobilisation levels ranged from 3000 to 5000 resonance units (RU). Nonderivatised flow cells served as reference surfaces.
# (§5) Studies of PARG inhibitor binding were conducted at 25°C. […] To calculate affinities, SPR equilibrium binding data, consisting of Req values from 8–10 point concentration series, were analyzed by fitting a simple 1∶1 binding model to yield Rmax and Kd values using non-linear regression analysis in Grafit 6 (Erithacus Software).
# [12] = target: T3, hPARG4 (hPARG(448–976)); assay: SPR binding to immobilised PARG, steady state fits; conditions: 25°C, steady state fit
# Protocol: as §3, §4, §5
# [13] = target: T4, hPARG (full-length); assay: Isothermal titration calorimetry; assay type: binding; conditions: 25°C
# Protocol: (§6) This was carried out using an iTC200 instrument (Microcal, GE Healthcare, Northampton, MA) at 25°C in the following buffer: 20 mM HEPES pH 7, 150 mM NaCl, 2 mM DTT, 0.02% NaN3. Protein concentrations were typically 30 µM in the cell with ligand concentrations of at least 10 fold this concentration in the syringe. Typical injection protocols of 19×2 µL injections, spaced at 2 or 3 minute intervals were used. Curves were fitted by non-linear regression analysis using a one-site binding model provided by MicroCal Origin software (version 7).
# [14] = target: T3, hPARG4 (hPARG(448–976)); assay: Isothermal titration calorimetry; assay type: binding; conditions: 25°C
# Protocol: as §6
# [15] = system: bovine PARG (bPARG), purified full-length protein; design: method as in PMID 13678410; conditions: read-out: IC50, literature value; cited from earlier work
# [16] = system: bovine PARG (bPARG), recombinant catalytic domain; design: method as in PMID 13678410; conditions: recombinant catalytic domain of bPARG; read-out: IC50, literature value; cited from earlier work
# [17] = target: bPARG; design: method as in PMID 7830282; conditions: read-out: KD, literature values for bPARG; cited from earlier work
compound,measurement,setting,value
8-aminohexylaminoADP-HPD [8-AH-ADP-HPD],Kd,[1],8.2 nM
same,Kd,"[2]; bPARG Glu728Asn (E727N in hPARG), SPR with immobilized 8-AH-ADP-HPD",3.2 nM
same,increase in affinity versus wild-type,"[2]; bPARG Glu728Asn, ref supplemental 2 (Patel et al., 2005)",18% wild-type specific activity; 2.5-fold increase in affinity for 8-AH-ADP-HPD
same,increase in affinity versus wild-type,[3],No effect on catalytic activity; 2.5-fold increase in affinity for 8-AH-ADP-HPD
same,decrease in affinity versus wild-type,[4],No detectable activity; 1.4-fold decrease in affinity for 8-AH-ADP-HPD
same,increase in affinity versus wild-type,[5],No detectable activity; 8-fold increase in 8-AH-ADP-HPD affinity
same,effect of mutation on affinity,[6],No detectable activity; no effect on 8-AH-ADP-HPD affinity
same,effect of mutation on binding,[7],Limited effect on catalytic activity and 8-AH-ADP-HPD binding
"Nc1ncnc2c1ncn2C1OC(COP(=O)(O)OP(=O)(O)OCC2NCC(O)C2O)C(O)C1O (stereo not shown) [ADP-HPD, adenosine 5′-diphosphate (hydroxymethyl)pyrrolidinediol]",IC50,"[8]; 384-well HTRF, 9 µL, 30 pM PARG, 9.67 nM PAR-PARP1, 8 min reaction, read-out: IC50",3 µM and 3.1 µM
same,IC50,"[8]; conditions of the High Throughput Screening campaign, read-out: IC50 under HTS campaign conditions",~0.6 µM
same,IC50,[9],1100 ± 220 nM
same,IC50,[10],970 ± 240 nM
same,Kd,[11],44.8 ± 2.9 nM
same,Kd,[12],64.3 ± 2.6 nM
same,Kd,"[13]; values heavily influenced by base-line noise (Figure S2), read-out: KD (ITC)",416 ± 89.9 nM
same,ΔG,[13]; ITC,-36.4 ± 0.5 kJ/mol
same,ΔH,[13]; ITC,-30.8 ± 0.04 kJ/mol
same,ΔS,[13]; ITC,+18.8±1.7 J/mol/K
same,Kd,[14]; read-out: KD (ITC),132 ± 14 nM
same,ΔG,[14]; ITC,-39.4 ± 0.3 kJ/mol
same,ΔH,[14]; ITC,-56.1 ± 0.4 kJ/mol
same,ΔS,[14]; ITC,−56.1±0.5 J/mol/K
same,IC50,[15],330 nM
same,IC50,[16],1000 to 1400 nM
same,Kd,[17],50 to 80 nM
